Assays:
Type in all cases: in vivo
corn (Zea mays) = assay: Test C preemergence; conditions: for Plant response rating, Corn: scale 0 to 100, 0 no effect, 100 complete control; for Plant response rating (0 to 100), Corn: visual evaluation after 12 to 14 days
From the text: (§1) Seeds of plant species selected from bermudagrass (Cynodon dactylon), Surinam grass (Brachiaria decumbens), cocklebur (Xanthium strumarium), corn (Zea mays), crabgrass (Digitaria sanguinalis), woolly cupgrass (Eriochloa villosa), giant foxtail (Setaria faberii), goosegrass (Eleusine indica), johnsongrass (Sorghum halepense), kochia (Kochia scoparia), lambsquarters (Chenopodium album), morningglory (Ipomoea hederacea), yellow nutsedge (Cyperus esculentus), pigweed (Amaranthus retroflexus), common ragweed (Ambrosia elatior), soybean (Glycine max) and velvetleaf (Abutilon theophrasti) were planted and treated preemergence with test chemicals formulated in a non-phytotoxic solvent mixture which included a surfactant.
(§2) At the same time, plants selected from these crop and weed species and also winter barley (Hordeum vulgare), blackgrass (Alopecurus myosuroides), canary grass (Phalaris minor), chickweed (Stellaria media), downy brome (Bromus tectorum), green foxtail (Setaria viridis), Italian ryegrass (Lolium multiflorum), wheat (Triticum aestivum), wild oat (Avena fatua) and windgrass (Apera spica-venti) were treated with postemergence applications of some of the test chemicals formulated in the same manner. Plants ranged in height from 2 to 18 cm (1- to 4-leaf stage) for postemergence treatments. Plant species in the flooded paddy test consisted of rice (Oryza saliva), smallflower flatsedge (Cyperus difformis), duck salad (Heteranthera limosa) and barnyardgrass (Echinochloa crus-galli) grown to the 2-leaf stage for testing. Treated plants and controls were maintained in a greenhouse for 12 to 14 days, after which time all species were compared to controls and visually evaluated. Plant response ratings, summarized in Table C, are based on a scale of 0 to 100 where 0 is no effect and 100 is complete control. A dash (-) response means no test result.

[1] = test system: morningglory (Ipomoea hederacea); assay: Test C preemergence; conditions: for Plant response rating, Morningglory: scale 0 to 100, 0 no effect, 100 complete control
From the text: as §1, §2

[2] = test system: Surinam grass (Brachiaria decumbens); assay: Test C preemergence; conditions: for Plant response rating, Surinam grass: scale 0 to 100, 0 no effect, 100 complete control; for Plant response rating (0 to 100), Surinam grass: visual evaluation after 12 to 14 days
From the text: as §1, §2

[3] = test system: lambsquarters (Chenopodium album); assay: Test C preemergence; conditions: for Plant response rating, Lambsquarters: scale 0 to 100, 0 no effect, 100 complete control
From the text: as §1, §2

kochia (Kochia scoparia) = assay: Test C preemergence; conditions: for Plant response rating, Kochia: scale 0 to 100, 0 no effect, 100 complete control; for Plant response rating (0 to 100), Kochia: visual evaluation after 12 to 14 days
From the text: as §1, §2

[4] = test system: bermudagrass (Cynodon dactylon); assay: Test C preemergence; conditions: for Plant response rating, Bermudagrass: scale 0 to 100, 0 no effect, 100 complete control; for Plant response rating (0 to 100 where 0 is no effect and 100 is complete control), Bermudagrass: visual evaluation after 12 to 14 days
From the text: as §1, §2

[5] = test system: goosegrass (Eleusine indica); assay: Test C preemergence; conditions: for Plant response rating, Goosegrass: scale 0 to 100, 0 no effect, 100 complete control; for Plant response rating (0 to 100), Goosegrass: visual evaluation after 12 to 14 days
From the text: as §1, §2

[6] = test system: woolly cupgrass (Eriochloa villosa); assay: Test C preemergence; conditions: for Plant response rating, Cupgrass, Woolly: scale 0 to 100, 0 no effect, 100 complete control; for Plant response rating (0 to 100), Cupgrass, Woolly: visual evaluation after 12 to 14 days
From the text: as §1, §2

soybean (Glycine max) = assay: Test C preemergence; conditions: preemergence; for Plant response rating, Soybean: scale 0 to 100, 0 no effect, 100 complete control
From the text: as §1, §2

[7] = test system: velvetleaf (Abutilon theophrasti); assay: Test C preemergence; conditions: preemergence; for Plant response rating, Velvetleaf: scale 0 to 100, 0 no effect, 100 complete control
From the text: as §1, §2

Nightshade = assay: Test C preemergence; conditions: scale 0 to 100, 0 no effect, 100 complete control
From the text: as §1, §2

[8] = test system: pigweed (Amaranthus retroflexus); assay: Test C preemergence; conditions: preemergence; for Plant response rating, Pigweed: scale 0 to 100, 0 no effect, 100 complete control
From the text: as §1, §2

[9] = test system: giant foxtail (Setaria faberii); assay: Test C preemergence; conditions: for Plant response rating, Foxtail, Giant: scale 0 to 100, 0 no effect, 100 complete control; for Plant response rating (0 to 100), Foxtail, Giant: visual evaluation after 12 to 14 days
From the text: as §1, §2

[10] = test system: johnsongrass (Sorghum halepense); assay: Test C preemergence; conditions: for Plant response rating, Johnsongrass: scale 0 to 100, 0 no effect, 100 complete control; for Plant response rating (0 to 100), Johnsongrass: visual evaluation after 12 to 14 days
From the text: as §1, §2

[11] = test system: crabgrass (Digitaria sanguinalis); assay: Test C preemergence; conditions: for Plant response rating, Crabgrass: scale 0 to 100, 0 no effect, 100 complete control; for Plant response rating (0 to 100), Crabgrass: visual evaluation after 12 to 14 days
From the text: as §1, §2

[12] = test system: yellow nutsedge (Cyperus esculentus); assay: Test C preemergence; conditions: for Plant response rating, Nutsedge: scale 0 to 100, 0 no effect, 100 complete control
From the text: as §1, §2

[13] = test system: cocklebur (Xanthium strumarium); assay: Test C preemergence; conditions: for Plant response rating, Cocklebur: scale 0 to 100, 0 no effect, 100 complete control; for Plant response rating (0 to 100), Cocklebur: visual evaluation after 12 to 14 days
From the text: as §1, §2

[14] = test system: smallflower flatsedge (Cyperus difformis); assay: Test C flooded paddy test; conditions: for Flatsedge plant response rating: Flooded Paddy, scale 0 to 100, 0 no effect, 100 complete control; for Plant response rating, Flatsedge: flooded paddy test, scale 0 to 100 (0 no effect, 100 complete control)
Summary of the method: (§3)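 Plants were grown to the 2-leaf stage under flooded paddy conditions and treated. They were then kept in a greenhouse for 12 to 14 days and visually rated against untreated controls on a 0–100 scale, where 0 is no effect and 100 is complete control.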

[15] = test system: duck salad (Heteranthera limosa); assay: Test C flooded paddy test; conditions: for Ducksalad plant response rating: Flooded Paddy, scale 0 to 100, 0 no effect, 100 complete control; for Plant response rating, Ducksalad: flooded paddy test, scale 0 to 100 (0 no effect, 100 complete control)
Summary of the method: as §3

[16] = test system: barnyardgrass (Echinochloa crus-galli); assay: Test C flooded paddy test; conditions: for Barnyardgrass plant response rating: Flooded Paddy, scale 0 to 100, 0 no effect, 100 complete control; for Plant response rating, Barnyardgrass: flooded paddy test, scale 0 to 100 (0 no effect, 100 complete control)
Summary of the method: as §3

Sunflower = assay: Test C preemergence; conditions: Rate 500 g/ha, visual evaluation after 12 to 14 days
[17] = preemergence, Rate 500 g/ha, visual evaluation after 12 to 14 days
[18] = Rate 500 g/ha, visual evaluation after 12 to 14 days

CCC(C)c1ccn(C2OCN(c3cccc(OC(F)(F)F)c3)C2=O)n1 (centres unmarked) [Compound 67]
Plant response rating, Corn (corn (Zea mays); Rate 62 g/ha): 0
Plant response rating (0 to 100), Corn (corn (Zea mays); preemergence, Rate 250 g/ha): 0
Plant response rating (0 to 100), Corn (corn (Zea mays); preemergence, Rate 500 g/ha): 100
Plant response rating, Corn (corn (Zea mays); preemergence, Rate 125 g/ha): 0
Plant response rating, Morningglory ([1]; Rate 62 g/ha): 0
Plant response rating (0 to 100), Morningglory [1, 17]: 20
Plant response rating, Morningglory ([1]; preemergence, Rate 125 g/ha): 0
Plant response rating, Morningglory ([1]; preemergence, Rate 250 g/ha): 0
Plant response rating, Surinam grass ([2]; Rate 62 g/ha): 0
Plant response rating (0 to 100), Surinam grass ([2]; preemergence, Rate 250 g/ha): 100
Plant response rating (0 to 100), Surinam grass ([2]; preemergence, Rate 500 g/ha): 100
Plant response rating, Surinam grass ([2]; preemergence, Rate 125 g/ha): 0
Plant response rating, Lambsquarters ([3]; Rate 62 g/ha): 100
Plant response rating (0 to 100), Lambsquarters [3, 17]: 100
Plant response rating, Lambsquarters ([3]; preemergence, Rate 125 g/ha): 100
Plant response rating, Lambsquarters ([3]; preemergence, Rate 250 g/ha): 100
Plant response rating, Kochia (kochia (Kochia scoparia); Rate 62 g/ha): 90
Plant response rating (0 to 100), Kochia (kochia (Kochia scoparia); preemergence, Rate 250 g/ha): 90
Plant response rating (0 to 100), Kochia (kochia (Kochia scoparia); preemergence, Rate 500 g/ha): 100
Plant response rating, Kochia (kochia (Kochia scoparia); preemergence, Rate 125 g/ha): 100
Plant response rating, Bermudagrass ([4]; Rate 62 g/ha): 100
Plant response rating (0 to 100 where 0 is no effect and 100 is complete control), Bermudagrass ([4]; preemergence, Rate 250 g/ha): 100
Plant response rating (0 to 100 where 0 is no effect and 100 is complete control), Bermudagrass ([4]; preemergence, Rate 500 g/ha): 100
Plant response rating, Bermudagrass ([4]; preemergence, Rate 125 g/ha): 100
Plant response rating, Goosegrass ([5]; Rate 62 g/ha): 100
Plant response rating (0 to 100), Goosegrass ([5]; preemergence, Rate 250 g/ha): 100
Plant response rating (0 to 100), Goosegrass ([5]; preemergence, Rate 500 g/ha): 100
Plant response rating, Goosegrass ([5]; preemergence, Rate 125 g/ha): 100
Plant response rating, Cupgrass, Woolly ([6]; Rate 62 g/ha): 90
Plant response rating (0 to 100), Cupgrass, Woolly ([6]; preemergence, Rate 250 g/ha): 100
Plant response rating (0 to 100), Cupgrass, Woolly ([6]; preemergence, Rate 500 g/ha): 100
Plant response rating, Cupgrass, Woolly ([6]; preemergence, Rate 125 g/ha): 70
Plant response rating (0 to 100), Soybean (soybean (Glycine max); [18]): 0
Plant response rating, Soybean (soybean (Glycine max); Rate 125 g/ha): 0
Plant response rating, Soybean (soybean (Glycine max); Rate 250 g/ha): 0
Plant response rating (0 to 100), Velvetleaf [7, 18]: 30
Plant response rating, Velvetleaf ([7]; Rate 125 g/ha): 50
Plant response rating, Velvetleaf ([7]; Rate 250 g/ha): 0
Plant response rating, Nightshade (Nightshade; Rate 62 g/ha): 0
Plant response rating, Nightshade (Nightshade; Rate 125 g/ha): 70
Plant response rating, Nightshade (Nightshade; Rate 250 g/ha): 80
Plant response rating (0 to 100), Pigweed [8, 18]: 80
Plant response rating, Pigweed ([8]; Rate 125 g/ha): 90
Plant response rating, Pigweed ([8]; Rate 250 g/ha): 80
Plant response rating, Foxtail, Giant ([9]; Rate 62 g/ha): 100
Plant response rating (0 to 100), Foxtail, Giant ([9]; preemergence, Rate 250 g/ha): 70
Plant response rating (0 to 100), Foxtail, Giant ([9]; preemergence, Rate 500 g/ha): 100
Plant response rating, Foxtail, Giant ([9]; preemergence, Rate 125 g/ha): 100
Plant response rating, Johnsongrass ([10]; Rate 62 g/ha): 30
Plant response rating (0 to 100), Johnsongrass ([10]; preemergence, Rate 250 g/ha): 100
Plant response rating (0 to 100), Johnsongrass ([10]; preemergence, Rate 500 g/ha): 100
Plant response rating, Johnsongrass ([10]; preemergence, Rate 125 g/ha): 60
Plant response rating, Crabgrass ([11]; Rate 62 g/ha): 100
Plant response rating (0 to 100), Crabgrass ([11]; preemergence, Rate 250 g/ha): 100
Plant response rating (0 to 100), Crabgrass ([11]; preemergence, Rate 500 g/ha): 100
Plant response rating, Crabgrass ([11]; preemergence, Rate 125 g/ha): 100
Plant response rating, Nutsedge ([12]; Rate 62 g/ha): 0
Plant response rating (0 to 100), Nutsedge [12, 17]: 20
Plant response rating, Nutsedge ([12]; preemergence, Rate 125 g/ha): 40
Plant response rating, Nutsedge ([12]; preemergence, Rate 250 g/ha): 0
Plant response rating, Cocklebur ([13]; Rate 62 g/ha): 0
Plant response rating (0 to 100), Cocklebur ([13]; preemergence, Rate 250 g/ha): 20
Plant response rating (0 to 100), Cocklebur ([13]; preemergence, Rate 500 g/ha): 50
Plant response rating, Cocklebur ([13]; preemergence, Rate 125 g/ha): 0
Flatsedge plant response rating ([14]; Rate 250 g/ha): 100
Flatsedge plant response rating ([14]; Rate 500 g/ha): 100
Plant response rating, Flatsedge ([14]; Rate 62 g/ha): 100
Plant response rating, Flatsedge ([14]; Rate 125 g/ha): 100
Ducksalad plant response rating ([15]; Rate 250 g/ha): 100
Ducksalad plant response rating ([15]; Rate 500 g/ha): 100
Plant response rating, Ducksalad ([15]; Rate 62 g/ha): 50
Plant response rating, Ducksalad ([15]; Rate 125 g/ha): 90
Barnyardgrass plant response rating ([16]; Rate 250 g/ha): 100
Barnyardgrass plant response rating ([16]; Rate 500 g/ha): 100
Plant response rating, Barnyardgrass ([16]; Rate 62 g/ha): 60
Plant response rating, Barnyardgrass ([16]; Rate 125 g/ha): 70
Plant response rating (0 to 100), Sunflower (Sunflower): 30

From US7138361B2, “Herbicidal heterocycles” (E. I. du Pont de Nemours and Company, priority 2000, dated 2006)
